Test results published in PubChem BioAssay AID2060509 (Molecular Pharmacology Branch, DTP, NCI, 2025).

Test system: 485176-168-R4-J1-PDC spheroids with HUVEC/MSC, viability
Experiment: Anticancer human tumor 485176-168-R4-J1-PDC patient-derived pancreatic adenocarcinoma cell line growth inhibition [GQUAD]
Details: for IC50: curve of first compound; for viability, T/C: stronger effect = lower value
Summary of the method: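 Viability of tumor cells grown as complex spheroids with endothelial and stromal cells, exposed to drug combinations. Top concentration at or near clinical Cmax (else 10 microM), diluted in half-log increments.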

[1] = second compound 0.0316 µM, first compound 0.0316 µM
[2] = second compound 0.0316 µM, first compound 0.1 µM
[3] = second compound 0.0316 µM, first compound 0.316 µM
[4] = second compound 0.0316 µM, first compound 1 µM
[5] = second compound 0.0316 µM, first compound 3.16 µM
[6] = second compound 0.0316 µM, first compound 10 µM
[7] = second compound 0.1 µM, first compound 0.0316 µM
[8] = second compound 0.1 µM, first compound 0.1 µM
[9] = second compound 0.1 µM, first compound 0.316 µM
[10] = second compound 0.1 µM, first compound 1 µM
[11] = second compound 0.1 µM, first compound 3.16 µM
[12] = second compound 0.1 µM, first compound 10 µM
[13] = second compound 0.316 µM, first compound 0.0316 µM
[14] = second compound 0.316 µM, first compound 0.1 µM
[15] = second compound 0.316 µM, first compound 0.316 µM
[16] = second compound 0.316 µM, first compound 1 µM
[17] = second compound 0.316 µM, first compound 3.16 µM
[18] = second compound 0.316 µM, first compound 10 µM
[19] = second compound 1 µM, first compound 0.0316 µM
[20] = second compound 1 µM, first compound 0.1 µM
[21] = second compound 1 µM, first compound 0.316 µM
[22] = second compound 1 µM, first compound 1 µM
[23] = second compound 1 µM, first compound 3.16 µM
[24] = second compound 1 µM, first compound 10 µM
[25] = second compound 3.16 µM, first compound 0.0316 µM
[26] = second compound 3.16 µM, first compound 0.1 µM
[27] = second compound 3.16 µM, first compound 0.316 µM
[28] = second compound 3.16 µM, first compound 1 µM
[29] = second compound 3.16 µM, first compound 3.16 µM
[30] = second compound 3.16 µM, first compound 10 µM
[31] = second compound 10 µM, first compound 0.0316 µM
[32] = second compound 10 µM, first compound 0.1 µM
[33] = second compound 10 µM, first compound 0.316 µM
[34] = second compound 10 µM, first compound 1 µM
[35] = second compound 10 µM, first compound 3.16 µM
[36] = second compound 10 µM, first compound 10 µM
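Note: spheroids exposed to compounds for seven days before readout.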
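Throughout, for viability, T/C: percent viability relative to DMSO vehicle control wells as 100%.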

`COc1cccc2c1C(=O)c1c(O)c3c(c(O)c1C2=O)CC(O)(C(=O)CO)CC3OC1CC(N)C(O)C(C)O1` (centres undefined) + CN(C)c1ccc(Nc2c3ccc(NC(=O)CCN4CCCC4)cc3nc3cc(NC(=O)CCN4CCCC4)ccc23)cc1 showed an IC50 (second compound 0.0316 µM) of 271 nM, an IC50 (second compound 0.1 µM) of 263 nM and an IC50 (second compound 0.316 µM) of 417 nM. It also gave an IC50 (second compound 1 µM) of 412 nM, an IC50 (second compound 3.16 µM) of 396 nM and an IC50 (second compound 10 µM) of 305 nM. The viability, T/C [1] was 104%, the viability, T/C [2] was 65.5% and the viability, T/C [3] was 59.2%. For the same molecule, the viability, T/C [4] was 15.4%, the viability, T/C [5] was 3.54% and the viability, T/C [6] was 0.22%. For the same molecule, the viability, T/C [7] was 95.2%, the viability, T/C [8] was 70.9% and the viability, T/C [9] was 49.2%. It also gave a viability, T/C [10] of 17.8%, a viability, T/C [11] of 2.43% and a viability, T/C [12] of 0.16%. It also gave a viability, T/C [13] of 84.9%, a viability, T/C [14] of 67% and a viability, T/C [15] of 62%. The viability, T/C [16] was 22.5%, the viability, T/C [17] was 3.97% and the viability, T/C [18] was 0.2%. The viability, T/C [19] was 99.5%, the viability, T/C [20] was 78.2% and the viability, T/C [21] was 64.1%. The viability, T/C [22] was 17.4%, the viability, T/C [23] was 4.15% and the viability, T/C [24] was 0.16%. The viability, T/C [25] was 84.2%, the viability, T/C [26] was 83.2% and the viability, T/C [27] was 53.4%. The viability, T/C [28] was 25.7%, the viability, T/C [29] was 2.96% and the viability, T/C [30] was 0.21%. The viability, T/C [31] was 72.2%, the viability, T/C [32] was 68.4% and the viability, T/C [33] was 48.5%. For the same molecule, the viability, T/C [34] was 22.9%, the viability, T/C [35] was 5.36% and the viability, T/C [36] was 0.33%.
`C=CCn1c(=O)c2cnc(Nc3ccc(N4CCN(C)CC4)cc3)nc2n1-c1cccc(C(C)(C)O)n1` + Cc1[nH]c2ccc(F)cc2c1-c1nc2c3cccnc3c3ncccc3c2[nH]1 was tested, and the IC50 (second compound 0.0316 µM) was 401 nM, the IC50 (second compound 0.1 µM) was 386 nM and the IC50 (second compound 0.316 µM) was 469 nM. It also gave an IC50 (second compound 1 µM) of 468 nM, an IC50 (second compound 3.16 µM) of 360 nM and an IC50 (second compound 10 µM) of 309 nM. The viability, T/C [1] was 103%, the viability, T/C [2] was 96.9% and the viability, T/C [3] was 55.1%. For the same molecule, the viability, T/C [4] was 22.6%, the viability, T/C [5] was 7.84% and the viability, T/C [6] was 3.33%. For the same molecule, the viability, T/C [7] was 105%, the viability, T/C [8] was 82.8% and the viability, T/C [9] was 60.2%. It also gave a viability, T/C [10] of 20%, a viability, T/C [11] of 7.9% and a viability, T/C [12] of 4.23%. The viability, T/C [13] was 98.2%, the viability, T/C [14] was 81.1% and the viability, T/C [15] was 65.8%. The viability, T/C [16] was 25%, the viability, T/C [17] was 6.26% and the viability, T/C [18] was 4.73%. For the same molecule, the viability, T/C [19] was 115%, the viability, T/C [20] was 94.4% and the viability, T/C [21] was 66.7%. The viability, T/C [22] was 22%, the viability, T/C [23] was 7.76% and the viability, T/C [24] was 4.28%. It also gave a viability, T/C [25] of 114%, a viability, T/C [26] of 75.1% and a viability, T/C [27] of 63.7%. It also gave a viability, T/C [28] of 23.2%, a viability, T/C [29] of 6.68% and a viability, T/C [30] of 4.03%. The viability, T/C [31] was 101%, the viability, T/C [32] was 82.4% and the viability, T/C [33] was 50.1%. It also gave a viability, T/C [34] of 18.9%, a viability, T/C [35] of 5.54% and a viability, T/C [36] of 3.76%.
